Measured values: patent US6060608A, “Analogs of CC-1065 and the duocarmycins” (The Scripps Research Institute, priority 1999, dated 2000)
Like-named read-outs stand apart in the source and are kept apart here.

Experiments:
w794 duplex DNA = assay: DNA alkylation selectivity and efficiency within w794 DNA, thermally-induced strand cleavage and PAGE; format: biochemical, SV40; settings: for DNA alkylation efficiency, natural/unnatural enantiomer ratio: (+)/ent-(-)
Source text: DNA Alkylation Selectivity and Efficiency. The DNA alkylation properties of the agents were examined within w794 duplex DNA, a 144 base-pair segment of duplex DNA for which comparative results are available for related agents. The alkylation site identification and the assessment of the relative selectivity among the available sites were obtained by thermally-induced strand cleavage of the singly 5' end-labeled duplex DNA after exposure to the agents. Following treatment of the end-labeled duplex DNA with a range of agent concentrations, the unbound agent was removed by EtOH precipitation of the DNA. Redissolution of the DNA in aqueous buffer, thermolysis (100° C., 30 min) to induce strand cleavage at the sites of DNA alkylation, denaturing high resolution polyacrylamide gel electrophoresis (PAGE) adjacent to Sanger dideoxynucleotide sequencing standards, and autoradiography led to identification of the DNA cleavage and alkylation sites. The DNA alkylation reaction selectivities observed under the incubation conditions for the agents detailed herein have proven identical to the alkylation selectivities observed with shorter or extended reaction periods or when the reactions were conducted at different temperatures (37 or 4° C., 0.5-7 d). As discussed below, the rates and efficiencies but not final relative efficiencies of DNA alkylation were altered by changing the reaction temperatures.
DNA Alkylation Properties. […] The DNA alkylation reaction was examined within w794 DNA for which comparative results are available for past agents. The alkylation site identification was obtained by thermal strand cleavage of the singly 5' end-labeled duplex DNA after exposure to the agents. Following treatment of the labeled DNA with a range of agent concentrations, the unbound agent was removed by EtOH precipitation of the DNA. Redissolution of the DNA in aqueous buffer, thermolysis at 100° C. (30 min) to induce depurination and strand cleavage at the adenine N3 or guanine N3 minor groove alkylation sites, denaturing high resolution PAGE adjacent to Sanger sequencing standards and autoradiography provided the DNA cleavage and alkylation sites.
DNA Alkylation Studies: selectivity and Efficiency. General procedures, the preparation of singly ^32 P 5' end-labeled double stranded DNA, the agent binding studies, gel electrophoresis, and autoradiography were conducted according to standard procedures. Eppendorf tubes containing the 5' end-labeled DNA (9 μL) in TE buffer (10 mM Tris, 1 mM EDTA, pH 7.5) were treated with the agent in DMSO (1 μL at the specified concentration). The solution was mixed by vortexing and brief centrifugation and subsequently incubated at 4 or 25° C. for 24 h (natural enantiomers) and 25 or 37° C. (unnatural enantiomers) for 72 h. The covalently modified DNA was separated from unbound agent by EtOH precipitation and resuspended in TE buffer (10 μL). The solution of DNA in an Eppendorf tube sealed with parafilm was warmed at 100° C. for 30 min to induce cleavage at the alkylation sites, allowed to cool to 25° C. and centrifuged. Formamide dye (0.03% xylene cyanol FF, 0.03% bromophenol blue, 8.7% Na2 EDTA 250 mM) was added (5 μL) to the supernatant. Prior to electrophoresis, the sample was denatured by warming at 100° C. for 5 min, placed in an icebath, and centrifuged, and the supernatant (3 μL) was loaded directly onto the gel. Sanger dideoxynucleotide sequencing reactions were run as standards adjacent to the reaction samples. Polyacrylamide gel electrophoresis (PAGE) was run on an 8% sequencing gel under denaturing conditions (8 M urea) in TBE buffer (100 mM Tris, 100 mM boric acid, 0.2 mM Na2 EDTA) followed by autoradiography.
DNA Alkylation of w794 DNA. Eppendorf tubes containing the 5'-end labeled DNA (9 μL) in TE buffer (10 mM Tris, 1 mM EDTA, pH 7.2) were treated with the agent in DMSO (1 μL at the specified concentration). […]

L1210 = assay: In vitro cytotoxic activity, L1210; settings: for cytotoxic activity, ring opened precursor 115 versus cyclopropane 116: L1210; for IC50: Mus musculus, L1210, read-out: cytotoxic activity IC50
[1] = Aqueous solvolysis reactivity followed by UV; format: physicochemical
Protocol: The reactivity of 217-219 was assessed by following the solvolysis spectrophotometrically by UV at both pH 3 (50% CH3 OH-buffer, buffer=4:1:20 (v/v/v) 0.1 M citric acid, 0.2 M Na2 HPO4, H2 O) and pH 7 (1:1 H2 O--CH3 OH) measuring both the disappearance of the long-wavelength absorption band of the F2 CBI chromophore and the appearance of a short-wavelength absorption band attributable to the ring open products (FIG. 31).
Aqueous Solvolysis Reactivity. pH 3: N-BOC-CCBI (25, 100 μg) was dissolved in CH3 OH (1.5 mL) and mixed with pH 3 aqueous buffer (1.5 mL). The buffer contained 4:1:20 (v:v:v) 0.1 M citric acid, 0.2 M Na2 HPO4 and H2 O, respectively. The solvolysis solution was sealed and kept at 25° C. protected from light. The UV spectrum was measured at regular intervals every 2 h during the first day, every 12 h for another week, and every 24 h for an additional week. The decrease in the long-wavelength absorption at 322 nm and the increase in the short-wavelength absorption at 268 nm were monitored, FIG. 1.
pH 2: Samples of 25 (100 μg) and 26 (50 μg) were dissolved in CH3 OH (1.5 mL) and the solutions were mixed with aqueous buffer (pH 2.05, 1.5 mL). The buffer contained 4:1:20 (v:v:v) 1.0 M citric acid, 0.2 M Na2 HPO4, and H2 O, respectively. Immediately after mixing, the UV spectra of the solutions were measured against a reference solution containing CH3 OH (1.5 mL) and the aqueous buffer (1.5 mL) and these readings were used for the initial absorbance values. The solutions were stoppered, protected from the light, and allowed to stand at 25° C. UV spectra were recorded at regular intervals until constant values were obtained for the long and short wavelength absorbances. The solvolysis rate constants were determined from the slope of the lines obtained from linear least squares treatment of plots of ln[(Af -Ai)/(Af -A)] versus time using the short wavelength measurements for 25 and long wavelength measurements for 26).

[2] = natural enantiomers, 37° C., 72 h

COc1cc2cc(C(=O)N3CC4C(F)(F)C45C3=CC(=O)c3ccccc35)[nH]c2c(OC)c1OC (racemic) [compound 224]
DNA alkylation properties, comparison in words (w794 duplex DNA): steadily increase as the temperature was decreased from 37 to 25 to 4 °C | DNA alkylation sequence selectivity (w794 duplex DNA; listed as F2 CBI-TMI): only adenine N3 alkylation was detected | DNA alkylation less efficient than CBI-TMI (w794 duplex DNA; racemic): 100-1000 × | DNA alkylation less efficient, by densitometry, average of several comparisons (w794 duplex DNA; racemic F2 CBI-TMI versus (+)-CBI-TMI): 675-725 ×

N#Cc1ccc2c(c1)C13CC1CN(C(=O)c1cc4c5c(ccc4[nH]1)N(C(N)=O)CC5)C3=CC2=O (single isomer, unassigned) [compound 39]
DNA alkylation sequence selectivity (w794 duplex DNA): strong preference but not absolute requirement for the fourth 5' base to be A or T versus G or C

COC(=O)c1cc2c([nH]1)C(=O)C=C1N(C(=O)c3cc4cc(OC)c(OC)c(OC)c4[nH]3)CC3CC123 (single isomer, unassigned) [ent-(-)-duocarmycin SA (2), reference compound]
DNA alkylation properties, comparison in words (w794 duplex DNA): slightly more effective

CC(C)(C)OC(=O)N1CC2CC23C1=CC(=O)c1ccccc13 (single isomer, unassigned; (+)) [(+)-N-BOC-CBI, reference compound]
DNA alkylation efficiency, natural/unnatural enantiomer ratio (w794 duplex DNA): 5-10 ×

COc1ccc2c(c1)C13CC1CN(C(=O)OC(C)(C)C)C3=CC2=O (single isomer, unassigned; (+)) [(+)-N-BOC-MCBI, reference compound]
DNA alkylation efficiency, natural/unnatural enantiomer ratio (w794 duplex DNA): 1-2 ×

COc1cc2cc(C(=O)N3C[C@H]4C[C@@]45C3=CC(=O)c3ccc(C#N)cc35)[nH]c2c(OC)c1OC [(+)-CCBI-TMI (35)]
DNA alkylation properties, comparison in words (w794 duplex DNA): exhibited the same selectivity and efficiency of DNA alkylation | concentration of detectable alkylation of high affinity site 5'-AATTA (w794 duplex DNA; 25° C., 24 h): 10^-6 to 10^-7 M

CC(C)(C)OC(=O)N1C[C@H]2C[C@@]23C1=CC(=O)c1ccc(C#N)cc13 [(+)-N-BOC-CCBI, N-(tert-Butyloxycarbonyl)-7-cyano-1,2,9,9a-tetrahydrocyclopropa[c]benz[e]indol-4-one]
DNA alkylation efficiency, natural/unnatural enantiomer ratio (w794 duplex DNA): 1-2 ×

N#Cc1ccc2c(c1)[C@]13C[C@H]1CN(C(=O)c1cc4c5c(ccc4[nH]1)N(C(N)=O)CC5)C3=CC2=O [(-)-CCBI-CDPI1]
DNA alkylation properties, comparison in words (w794 duplex DNA): (-)-CCBI-indole2 >(-)-CCBI-CDPI1>(-)-CCBI-TMI

N#Cc1ccc2c(c1)[C@]13C[C@H]1CN(C(=O)c1cc4cc(NC(=O)c5cc6ccccc6[nH]5)ccc4[nH]1)C3=CC2=O [(-)-CCBI-indole2]
DNA alkylation properties, comparison in words (w794 duplex DNA): (-)-CCBI-indole2 >(-)-CCBI-CDPI1>(-)-CCBI-TMI

COc1ccc2c(c1)C13CC1CN(C(=O)OC(C)(C)C)C3=CC2=O (stereo not drawn) [N-BOC-MCBI, reference compound]
concentration at which DNA alkylation is detectable (w794 duplex DNA; [2]): 10^-3 M | concentration at which DNA alkylation is prominent (w794 duplex DNA; [2]): 10^-2 M | relative cytotoxic potency of natural versus unnatural enantiomers (L1210; N-BOC derivatives): 2 ×

CC(C)(C)OC(=O)N1CC(CCl)c2c1cc(O)c1ccc(C#N)cc21 (stereo not drawn) [compound 23, 3-(tert-Butyloxycarbonyl)-1-(chloromethyl)-8-cyano-5-hydroxy-1,2-dihydro-3H-benz[e]indole]
cytotoxic activity of seco precursors versus cyclopropane containing agents (L1210): indistinguishable from the cyclopropane containing agents

N#Cc1ccc2c(c1)C13CC1CNC3=CC2=O (stereo not drawn) [compound 26, 7-Cyano-1,2,9,9a-tetrahydrocyclopropa[c]benz[e]indol-4-one]
half-life ([1]; ch3oh-buffer 1:1, pH 2): 91.5 h

COc1cc2cc(C(=O)N3CC(CCl)c4c3cc(O)c3ccc(C#N)cc43)[nH]c2c(OC)c1OC (stereo not drawn) [compound 34]
cytotoxic activity of seco precursors versus cyclopropane containing agents (L1210): indistinguishable from the cyclopropane containing agents

N#Cc1ccc2c(O)cc3c(c2c1)C(CCl)CN3C(=O)c1cc2cc(NC(=O)c3cc4ccccc4[nH]3)ccc2[nH]1 (stereo not drawn) [compound 36]
cytotoxic activity of seco precursors versus cyclopropane containing agents (L1210): indistinguishable from the cyclopropane containing agents

N#Cc1ccc2c(O)cc3c(c2c1)C(CCl)CN3C(=O)c1cc2c3c(ccc2[nH]1)N(C(N)=O)CC3 (stereo not drawn) [compound 38]
cytotoxic activity of seco precursors versus cyclopropane containing agents (L1210): indistinguishable from the cyclopropane containing agents

CCOC(=O)C(=O)N1CC(CCl)c2c1cc(O)c1ccccc21 (stereo not drawn) [compound 114, 1-Chloromethyl-3-(2-ethoxy-1,2-dioxoethyl)-5-hydroxy-1,2-dihydro-3H-benz[e]indole]
DNA alkylation properties, comparison in words (w794 duplex DNA): more effective

CCOC(=O)CCC(=O)N1CC(CCl)c2c1cc(O)c1ccccc21 (stereo not drawn) [compound 115, 1-Chloromethyl-3-(4-ethoxy-1,4-dioxobutyl)-5-hydroxy-1,2-dihydro-3H-benz[e]indole]
cytotoxic activity, ring opened precursor 115 versus cyclopropane 116 (L1210): no distinctions were observed | IC50 (L1210): 5 to 6 nM

CCOC(=O)CCC(=O)N1CC2CC23C1=CC(=O)c1ccccc13 (stereo not drawn) [compound 116, N^2-(4-ethoxy-1,4-dioxobutyl)-1,2,9,9a-tetrahydrocyclopropa[c]benz[e]indole-4-one]
more effective at alkylating DNA than N-BOC-CBI (123) (w794 duplex DNA; natural enantiomer): 10-100 × | cytotoxic activity, ring opened precursor 115 versus cyclopropane 116 (L1210): no distinctions were observed | IC50 (L1210): 5 to 6 nM

CC(=O)N1CC2C(F)(F)C23C1=CC(=O)c1ccccc13 (stereo not drawn) [compound 217]
solvolysis reactivity relative to corresponding CBI agent lacking the two fluorines [1]: 500 × | solvolysis stability/reactivity [1]: No substantial distinction in the reactivity of 217 and 219 was observed

O=C1C=C2NCC3C(F)(F)C23c2ccccc21 (stereo not drawn) [compound 218, 9,9-difluoro-1,2,9,9a-tetrahydrocyclopropa[c]benzo[e]indol-4-one]
solvolysis reactivity relative to corresponding CBI agent lacking the two fluorines [1]: approximately 220 × | half-life ([1]; 50% ch3oh-buffer, pH 3): 4.2 h | solvolysis rate constant k ([1]; pH 3, 50% CH3OH-buffer): 4.54e-05 s⁻¹

CC(C)(C)OC(=O)N1CC2C(F)(F)C23C1=CC(=O)c1ccccc13 (stereo not drawn) [compound 219]
solvolysis stability/reactivity [1]: No substantial distinction in the reactivity of 217 and 219 was observed | half-life ([1]; 1:1 h2o-ch3oh, pH 7): 2.33 h | half-life ([1]; 50% ch3oh-buffer, pH 3): 0.26 h | solvolysis rate constant k ([1]; pH 3, 50% CH3OH-buffer): 0.000705 s⁻¹ | solvolysis rate constant k ([1]; pH 7, 1:1 H2O-CH3OH): 8.27e-05 s⁻¹

COc1cc2cc(C(=O)N3C[C@@H]4C[C@]45C3=CC(=O)c3ccc(C#N)cc35)[nH]c2c(OC)c1OC [ent-(-)-CCBI-TMI (35)]
DNA alkylation properties, comparison in words (w794 duplex DNA): nearly indistinguishable | DNA alkylation properties, comparison in words (w794 duplex DNA; listed as (-)-CCBI-TMI): (-)-CCBI-indole2 >(-)-CCBI-CDPI1>(-)-CCBI-TMI
